Measurements reported in patent US20260049084A1, “ENPP1 MODULATORS AND PRODUCTS AND USES THEREOF” (Gossamer Bio Services, Inc., priority 2022, published 2026).

Legend:
[1] = molecular target: Recombinant human ENPP3 protein (Homo sapiens (Human), UniProt O14638); assay: ENPP3 cGAMP Biochemical Assay; conditions: 70.5 nM ENPP3, 120 μM 2′3′-cGAMP substrate, TR-FRET
Protocol: ENPP3 cGAMP Biochemical Assay
Compounds were added to 384 well Proxiplate (PerkinElmer, Waltham MA) at 100 nl/well from DMSO stocks using Echo (Labcyte, San Jose CA). Recombinant human ENPP3 protein (Acro Biosystems, Newwark DE) was prepared in assay buffer (50 mM Tris pH7.5, 1 mM TCEP pH7.0, 2 mM MgCl2, 2 mM CaCl2), 2 mM ZnCl2 and 0.005% Tween20) and added at 2 μl/well. The plate was sealed, centrifuged at 1000 rpm for 1 minute and incubated at room temperature for 30 minutes before 2 μl substrate 2′3′-cGAMP (R&D Systems, Minneapolis MN) in assay buffer was added to each well to a final concentration of 70.5 nM ENPP3 and 120 μM 2′3′-cGAMP. The plate was sealed and centrifuged at 1000 rpm for 1 minute again. After incubation at 25° C. for 60 minutes, Terbium labelled AMP/GMP antibody and AMP/GMP HiLyte647 Tracer (BellBrook Labs, Fitchburg WI) in detection buffer (50 mM Tris pH7.5, 20 mM EDTA and 0.1% Prionex) were added to the reaction mixture to a final concentration of 475 nM and 3 nM respectively. The assay plate was incubated at room temperature for 120 minutes. TR-FRET signal was detected using Envision (PerkinElmer, Waltham MA).

[2] = molecular target: Recombinant human ENPP1 protein (Homo sapiens (Human), UniProt P22413); assay: ENPP1 cGAMP Biochemical Assay; conditions: 0.5 nM ENPP1, 1000 nM 2′3′-cGAMP substrate, TR-FRET
Protocol: ENPP1 cGAMP Biochemical Assay
Compounds were added to 384 well Proxiplate (PerkinElmer, Waltham MA) at 100 nl/well from DMSO stocks using Echo (Labcyte, San Jose CA). Recombinant human ENPP1 protein (R&D Systems, Minneapolis MN) was prepared in assay buffer (50 mM Tris pH7.5, 1 mM TCEP pH7.0, 2 mM MgCl2 and 0.005% Tween20) and added at 10 μl/well. The plate was sealed, centrifuged at 1000 rpm for 1 minute and incubated at room temperature for 30 minutes before 5 μl substrate 2′3′-cGAMP (R&D Systems, Minneapolis MN) in assay buffer was added to each well to a final concentration of 0.5 nM ENPP1 and 1000 nM 2′3′-cGAMP. The plate was sealed and centrifuged at 1000 rpm for 1 minute again. After incubation at 25° C. for 60 minutes, Terbium labelled AMP/GMP antibody and AMP/GMP HiLyte647 Tracer (BellBrook Labs, Fitchburg WI) in detection buffer (50 mM Tris pH7.5, 20 mM EDTA and 0.1% Prionex) were added to the reaction mixture to a final concentration of 2 nM (5 μl/well). The assay plate was incubated at room temperature for 120 minutes. TR-FRET signal was detected using Envision (PerkinElmer, Waltham MA).

Recombinant human ENPP1 protein, sequence (P22413 whole entry): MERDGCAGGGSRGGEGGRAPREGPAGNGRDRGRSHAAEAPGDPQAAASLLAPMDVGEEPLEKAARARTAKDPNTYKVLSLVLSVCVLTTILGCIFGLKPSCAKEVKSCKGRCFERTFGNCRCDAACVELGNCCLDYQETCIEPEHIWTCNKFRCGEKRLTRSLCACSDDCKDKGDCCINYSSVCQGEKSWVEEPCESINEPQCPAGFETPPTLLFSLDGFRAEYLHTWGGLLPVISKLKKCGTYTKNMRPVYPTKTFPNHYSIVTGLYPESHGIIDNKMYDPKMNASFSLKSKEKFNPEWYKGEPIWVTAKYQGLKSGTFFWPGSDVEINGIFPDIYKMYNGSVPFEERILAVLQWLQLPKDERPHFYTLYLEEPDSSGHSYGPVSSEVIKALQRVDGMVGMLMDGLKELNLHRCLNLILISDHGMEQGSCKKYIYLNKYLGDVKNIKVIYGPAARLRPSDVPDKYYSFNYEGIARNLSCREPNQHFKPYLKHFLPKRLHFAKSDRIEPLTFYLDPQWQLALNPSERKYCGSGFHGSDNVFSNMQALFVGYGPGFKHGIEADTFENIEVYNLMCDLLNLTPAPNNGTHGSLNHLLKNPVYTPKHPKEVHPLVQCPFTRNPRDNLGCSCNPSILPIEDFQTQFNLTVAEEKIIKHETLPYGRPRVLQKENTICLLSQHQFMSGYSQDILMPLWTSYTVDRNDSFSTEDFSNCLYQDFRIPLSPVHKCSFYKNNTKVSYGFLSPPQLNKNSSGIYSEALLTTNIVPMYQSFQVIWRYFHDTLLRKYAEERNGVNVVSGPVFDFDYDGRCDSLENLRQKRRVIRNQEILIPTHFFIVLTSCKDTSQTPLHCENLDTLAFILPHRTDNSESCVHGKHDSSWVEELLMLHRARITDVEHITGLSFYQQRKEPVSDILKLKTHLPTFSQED
Recombinant human ENPP3 protein, sequence (O14638 whole entry): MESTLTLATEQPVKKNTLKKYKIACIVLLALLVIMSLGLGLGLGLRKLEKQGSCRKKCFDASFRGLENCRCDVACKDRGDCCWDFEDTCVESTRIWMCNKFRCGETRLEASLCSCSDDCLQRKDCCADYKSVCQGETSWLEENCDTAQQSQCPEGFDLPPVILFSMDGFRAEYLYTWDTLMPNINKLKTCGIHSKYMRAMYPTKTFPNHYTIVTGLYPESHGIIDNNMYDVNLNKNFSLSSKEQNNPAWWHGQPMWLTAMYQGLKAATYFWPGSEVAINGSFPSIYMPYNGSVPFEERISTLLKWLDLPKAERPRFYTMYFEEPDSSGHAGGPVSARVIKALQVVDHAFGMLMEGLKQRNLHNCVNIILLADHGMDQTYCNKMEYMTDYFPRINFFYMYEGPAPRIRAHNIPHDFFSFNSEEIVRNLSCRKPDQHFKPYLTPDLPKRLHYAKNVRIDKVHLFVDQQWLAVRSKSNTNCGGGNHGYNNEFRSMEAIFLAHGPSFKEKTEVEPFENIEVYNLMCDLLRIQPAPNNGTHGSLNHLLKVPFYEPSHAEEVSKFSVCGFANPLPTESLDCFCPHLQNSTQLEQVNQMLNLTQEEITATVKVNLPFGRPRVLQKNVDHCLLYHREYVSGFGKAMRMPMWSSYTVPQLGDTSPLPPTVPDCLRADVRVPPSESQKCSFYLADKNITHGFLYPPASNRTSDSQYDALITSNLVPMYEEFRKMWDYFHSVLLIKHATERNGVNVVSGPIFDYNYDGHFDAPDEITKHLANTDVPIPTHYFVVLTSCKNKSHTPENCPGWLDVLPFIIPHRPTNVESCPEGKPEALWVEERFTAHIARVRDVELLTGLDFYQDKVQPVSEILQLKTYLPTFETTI

| IC50 [1] | IC50 [2] | SMILES |
| --- | --- | --- |
| < 10 nM | < 10 nM | N#CCn1nc(Cl)c2c(NCC3CCN(S(N)(=O)=NC#N)CC3)ccnc21 (stereo not shown) [Compound 15B, 4-(((3-chloro-1-(cyanomethyl)-1H-pyrazolo[3,4-b]pyridin-4-yl)amino)methyl)-N′-cyanopiperidine-1-sulfonimidamide] |
| ≥ 1000 nM | 10 to 100 nM | CN[S@@](=N)(=O)c1ccc(CNc2ccnc3c2c(Cl)nn3CC#N)cc1 [Compound 10F, (R)-4-(((3-chloro-1-(cyanomethyl)-1H-pyrazolo[3,4-b]pyridin-4-yl)amino)methyl)-N-methylbenzenesulfonimidamide] |
| ≥ 1000 nM | 100 to 1000 nM | C#CCn1nc(Cl)c2c(NCC3CCN([S@](C)(=O)=NC#N)CC3)ccnc21 [Compound 14J, (R)-N-((4-(((3-chloro-1-(prop-2-yn-1-yl)-1H-pyrazolo[3,4-b]pyridin-4-yl)amino)methyl)piperidin-1-yl)(methyl)(oxo)-λ6-sulfaneylidene)cyanamide] |
| ≥ 1000 nM | < 10 nM | C#CCn1nc(Cl)c2c(N(C)Cc3ccc([S@@](C)(=N)=O)cc3)ccnc21 [Compound 9C, (S)-(4-(((3-chloro-1-(prop-2-yn-1-yl)-1H-pyrazolo[3,4-b]pyridin-4-yl)(methyl)amino)methyl)phenyl)(imino)(methyl)-λ^6-sulfanone] |
| 100 to 1000 nM | < 10 nM | CCn1nc(Cl)c2c(Nc3ccc(S(N)(=O)=NCC4CC4)cc3)ccnc21 (stereo not shown) [Compound 5F, 4-((3-chloro-1-ethyl-1H-pyrazolo[3,4-b]pyridin-4-yl)amino)-N′-(cyclopropylmethyl)benzene sulfonimidamide] |
| 10 to 100 nM | < 10 nM | C#CCn1nc(Cl)c2c(NCc3ccc(S(=N)(N)=O)cc3)ccnc21 (stereo not shown) [Compound 11A, 4-(((3-chloro-1-(prop-2-yn-1-yl)-1H-pyrazolo[3,4-b]pyridin-4-yl)amino)methyl)benzenesulfonimidamide] |
| ≥ 1000 nM | 10 to 100 nM | CCn1nc(Cl)c2c(NCC3CCN(S(=N)(=O)CCOC)CC3)ccnc21 (stereo not shown) [Compound 14B, 3-chloro-1-ethyl-N-((1-(2-methoxyethylsulfonimidoyl)piperidin-4-yl)methyl)-1H-pyrazolo[3,4-b]pyridin-4-amine] |
| 10 to 100 nM | < 10 nM | C[S@@](=N)(=O)c1ccc(CNc2ccnc3c2c(Cl)nn3CC#N)cc1 [Compound 9H, (R)-2-(3-chloro-4-((4-(S-methylsulfonimidoyl)benzyl)amino)-1H-pyrazolo[3,4-b]pyridin-1-yl)acetonitrile] |
| ≥ 1000 nM | < 10 nM | C#CCn1nc(Cl)c2c(NCC3CCN([S@@](C)(=O)=NC#N)CC3)ccnc21 [Compound 14I, (S)-N-((4-(((3-chloro-1-(prop-2-yn-1-yl)-1H-pyrazolo[3,4-b]pyridin-4-yl)amino)methyl)piperidin-1-yl)(methyl)(oxo)-λ6-sulfaneylidene)cyanamide] |
| 100 to 1000 nM | < 10 nM | CCn1nc(Cl)c2c(NCc3ccc(S(=N)(=O)CC)cc3)ccnc21 (stereo not shown) [Compound 9K, (4-(((3-chloro-1-ethyl-1H-pyrazolo[3,4-b]pyridine-4-yl)amino)methyl)phenyl)(ethyl) (imino)-λ^6-sulfanone] |
| ≥ 1000 nM | 100 to 1000 nM | C[S@](=N)(=O)c1ccc(CNc2ccnc3c2c(Cl)nn3CC#N)cc1 [Compound 9G, (S)-2-(3-chloro-4-((4-(S-methylsulfonimidoyl)benzyl)amino)-1H-pyrazolo[3,4-b]pyridin-1-yl) acetonitrile] |
| 10 to 100 nM | < 10 nM | C#CCn1nc(Cl)c2c(NCc3ccc(S(N)(=O)=NC)cc3)ccnc21 (stereo not shown) [Compound 12A, 4-(((3-chloro-1-(prop-2-yn-1-yl)-1H-pyrazolo[3,4-b]pyridin-4-yl)amino)methyl)-N′-methylbenzenesulfonimidamide] |
| ≥ 1000 nM | 10 to 100 nM | CCn1nc(Cl)c2c(NCC3CCN([S@](=N)(=O)CCOC)CC3)ccnc21 [Compound 14D, (S)-3-chloro-1-ethyl-N-((1-(2-methoxyethylsulfonimidoyl)piperidin-4-yl)methyl)-1H-pyrazolo[3,4-b]pyridin-4-amine] |
| ≥ 1000 nM | 100 to 1000 nM | C[S@](=N)(=O)N1CCC(CNc2ccnc3c2c(Cl)nn3CC#N)CC1 [Compound 13F, (R)-2-(3-chloro-4-(((1-(S-methylsulfonimidoyl)piperidin-4-yl)methyl)amino)-1H-pyrazolo[3,4-b]pyridin-1-yl)acetonitrile] |
| ≥ 1000 nM | < 10 nM | CCn1nc(Cl)c2c(Nc3ccc(S(N)(=O)=NC4CC4)cc3)ccnc21 (stereo not shown) [Compound 5I, 4-((3-chloro-1-ethyl-1H-pyrazolo[3,4-b]pyridin-4-yl)amino)-N′-cyclopropylbenzenesulfonimidamide] |
| ≥ 1000 nM | 10 to 100 nM | CCn1nc(Cl)c2c(NCc3ccc([S@](N)(=O)=NC)cc3)ccnc21 [Compound 12D, (R)-4-(((3-chloro-1-ethyl-1H-pyrazolo[3,4-b]pyridin-4-yl)amino)methyl)-N′-methyl benzenesulfonimidamide] |
| 10 to 100 nM | < 10 nM | C#CCn1nc(Cl)c2c(NCC3CCN(S(C)(=N)=O)CC3)ccnc21 (stereo not shown) [Compound 13A, 3-chloro-N-((1-(S-methylsulfonimidoyl)piperidin-4-yl)methyl)-1-(prop-2-yn-1-yl)-1H-pyrazolo[3,4-b]pyridin-4-amine] |
| 100 to 1000 nM | < 10 nM | CN=S(N)(=O)c1ccc(CNc2ccnc3c2c(Cl)nn3CC#N)cc1 (stereo not shown) [Compound 12B, 4-(((3-chloro-1-(cyanomethyl)-1H-pyrazolo[3,4-b]pyridin-4-yl)amino)methyl)-N′-methylbenzenesulfonimidamide] |
| ≥ 1000 nM | 100 to 1000 nM | C#CCn1nc(Cl)c2c(NCc3ccc(S(C)(=O)=NC)cc3)ccnc21 (stereo not shown) [Compound 10A, (4-(((3-chloro-1-(prop-2-yn-1-yl)-1H-pyrazolo[3,4-b]pyridin-4-yl)amino)methyl)phenyl)(methyl)(methylimino)-λ6-sulfanone] |
| ≥ 1000 nM | 100 to 1000 nM | CCn1ncc2c(NCc3ccc([S@](N)(=O)=NC)cc3)ccnc21 [Compound 3F, (R)-4-(((1-ethyl-1H-pyrazolo[3,4-b]pyridin-4-yl)amino)methyl)-N′-methylbenzenesulfonimidamide] |
| ≥ 1000 nM | ≥ 1000 nM | CCn1ncc2c(Oc3ccc(S(N)(=O)=NCC4CC4)cc3)ccnc21 (stereo not shown) [Compound 16A, N′-(cyclopropylmethyl)-4-((1-ethyl-1H-pyrazolo [3,4-b]pyridin-4-yl)oxy)benzenesulfonimidamide] |
| ≥ 1000 nM | 10 to 100 nM | C#CCn1nc(Cl)c2c(NCc3ccc([S@](C)(=N)=O)cc3)ccnc21 [Compound 6A, (R)-(4-(((3-chloro-1-(prop-2-yn-1-yl)-1H-pyrazolo[3,4-b]pyridin-4-yl)amino)methyl)phenyl)(imino)(methyl)-λ^6-sulfanone] |
| ≥ 1000 nM | 100 to 1000 nM | CCn1ncc2c(OCc3ccc(S(N)(=O)=NC)cc3)ccnc21 (stereo not shown) [Compound 7A, 4-(((1-ethyl-1H-pyrazolo[3,4-b]pyridin-4-yl)oxy)methyl)-N′-methylbenzenesulfonimidamide] |
| 100 to 1000 nM | < 10 nM | CN[S@](=N)(=O)c1ccc(CNc2ccnc3c2c(Cl)nn3CC#N)cc1 [Compound 10E, (S)-4-(((3-chloro-1-(cyanomethyl)-1H-pyrazolo[3,4-b]pyridin-4-yl)amino)methyl)-N-methylbenzenesulfonimidamide] |
| 100 to 1000 nM | < 10 nM | N#CCn1nc(Cl)c2c(NCc3ccc(S(=N)(N)=O)cc3)ccnc21 (stereo not shown) [Compound 11B, 4-(((3-chloro-1-(cyanomethyl)-1H-pyrazolo[3,4-b]pyridin-4-yl)amino)methyl)benzenesulfonimidamide] |
| ≥ 1000 nM | < 10 nM | CCn1ncc2c(NCc3ccc([S@@](N)(=O)=NC)cc3)ccnc21 [Compound 3E, (S)-4-(((1-ethyl-1H-pyrazolo[3,4-b]pyridin-4-yl)amino)methyl)-N′-methylbenzenesulfonimidamide] |
